Structures are written as SMILES.

The subject of one data set is A549 cells. The note with it: cited from earlier work.
Data set [1] concerns EBOV-GP-pseudotype virus (pEBOV).
The next data set is described as follows: in vitro. The note with it: African green monkey.
Data set [2] has as its system EBOV-GP-pseudotype virus (pEBOV). As to the kind of experiment: microbe, parasite or virus in culture. The note with it: Zaire ebolavirus, Vero C1008, read-out: EC50 (pEBOV).

Consider `CN(C)CCOc1ccc(/C(=C(/CCCl)c2ccccc2)c2ccccc2)cc1` [Toremifene, reference compound], for which the CC50 is 16 µM in the data set on A549 cells and 10 µM in “in vitro”. The “SI (pEBOV) (CC50/EC50)” value in data set [1] is listed as “d Toremifene was used as the reference of the assay EC50 = 0.17 μM (95% CI = 0.15–0.54 μM), CC50 (VeroE6 cells) = 10 μM, SI = 58.8 (lit^25: EC50 = 0.07 ± 0.05 μM, CC50 (A549 cells) = 16 μM, SI = 229)”. The EC50 in data set [2] was found to be 0.17 µM.

Usually EC50 stands for the concentration at which the effect is half-maximal.
